Laboratory results published in US7841299B2, “Method and apparatus for applying hoof care, sanitizing, or treatment solutions to the feet or hooves of animals” (Jot Holdings, LLC, priority 2007, dated 2010).

Test system: active lesions (interdigital dermatitis or hairy warts)

O=S(=O)([O-])[O-].[Cu+2] [copper sulfate]
lesions per week, average (50 gallons water + 25 lbs copper sulfate per 400 cows, once per day, 4 days per week, 1,600 cow dairy): 22 lesions per week
lesions per week, high (same regimen, 8 week record): 36
lesions per week, low (same regimen, 8 week record): 13
